Reference: ChEMBL document CHEMBL5723584 (2023)

Experiments:
Conditions in all cases: Compound concentration 1.0 uM
[1] = target: Activin receptor type-1B (Homo sapiens) (UniProt P36896); experiment: activity of ALK4(h) at 1.0 µM in the Eurofins Kinase panel
[2] = target: Serine/threonine-protein kinase A-Raf (Homo sapiens) (UniProt P10398); experiment: activity of A-Raf(h) at 1.0 µM in the Eurofins Kinase panel
[3] = target: Calcium/calmodulin-dependent protein kinase kinase 1 (Homo sapiens) (UniProt Q8N5S9); experiment: activity of CaMKK1(h) at 1.0 µM in the Eurofins Kinase panel
[4] = target: Cyclin-dependent kinase 2/cyclin E (Homo sapiens) (UniProt P24864+P24941+O96020); experiment: activity of CDK2/cyclinE(h) at 1.0 µM in the Eurofins Kinase panel; format: protein-complex assay
[5] = target: Dual specificity protein kinase CLK3 (Homo sapiens) (UniProt P49761); experiment: activity of CLK3(h) at 1.0 µM in the Eurofins Kinase panel
[6] = target: Myotonin-protein kinase (Homo sapiens) (UniProt Q09013); experiment: activity of DMPK(h) at 1.0 µM in the Eurofins Kinase panel
[7] = target: Serine/threonine-protein kinase 17A (Homo sapiens) (UniProt Q9UEE5); experiment: activity of DRAK1(h) at 1.0 µM in the Eurofins Kinase panel
[8] = target: Dual specificity tyrosine-phosphorylation-regulated kinase 3 (Homo sapiens) (UniProt O43781); experiment: activity of DYRK3(h) at 1.0 µM in the Eurofins Kinase panel
[9] = target: Ephrin type-B receptor 4 (Homo sapiens) (UniProt P54760); experiment: activity of EphB4(h) at 1.0 µM in the Eurofins Kinase panel
[10] = target: Mitogen-activated protein kinase kinase kinase kinase 3 (Homo sapiens) (UniProt Q8IVH8); experiment: activity of MAP4K3(h) at 1.0 µM in the Eurofins Kinase panel
[11] = target: Myosin light chain kinase (Homo sapiens) (UniProt Q32MK0); experiment: activity of MLCK(h) at 1.0 µM in the Eurofins Kinase panel
[12] = target: Mitogen-activated protein kinase kinase kinase 11 (Homo sapiens) (UniProt Q16584); experiment: activity of MLK3(h) at 1.0 µM in the Eurofins Kinase panel
Sequence of Mitogen-activated protein kinase kinase kinase 11 (Homo sapiens) (Q16584 whole entry, looked up): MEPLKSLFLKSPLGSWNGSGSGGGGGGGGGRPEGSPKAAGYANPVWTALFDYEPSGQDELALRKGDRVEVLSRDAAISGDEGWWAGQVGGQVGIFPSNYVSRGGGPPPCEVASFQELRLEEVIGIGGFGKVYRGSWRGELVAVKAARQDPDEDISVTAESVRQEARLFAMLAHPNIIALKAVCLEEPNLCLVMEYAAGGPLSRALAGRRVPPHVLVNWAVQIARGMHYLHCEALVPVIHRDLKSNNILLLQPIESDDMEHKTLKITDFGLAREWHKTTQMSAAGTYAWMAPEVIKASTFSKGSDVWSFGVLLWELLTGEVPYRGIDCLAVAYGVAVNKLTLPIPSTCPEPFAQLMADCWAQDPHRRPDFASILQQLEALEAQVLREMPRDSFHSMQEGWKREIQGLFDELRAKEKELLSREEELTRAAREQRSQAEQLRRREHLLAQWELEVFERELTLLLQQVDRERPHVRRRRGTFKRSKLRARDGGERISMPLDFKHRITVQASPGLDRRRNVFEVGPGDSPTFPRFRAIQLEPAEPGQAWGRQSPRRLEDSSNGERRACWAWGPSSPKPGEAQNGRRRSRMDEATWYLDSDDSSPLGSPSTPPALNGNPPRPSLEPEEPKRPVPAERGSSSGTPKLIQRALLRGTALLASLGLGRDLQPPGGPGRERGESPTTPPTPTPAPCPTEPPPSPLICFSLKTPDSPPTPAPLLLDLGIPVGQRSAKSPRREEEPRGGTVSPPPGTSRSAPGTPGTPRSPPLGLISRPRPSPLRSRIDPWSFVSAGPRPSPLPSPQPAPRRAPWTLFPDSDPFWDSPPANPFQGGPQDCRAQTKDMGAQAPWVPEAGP

[13] = target: Serine/threonine-protein kinase 3 (Homo sapiens) (UniProt Q13188); experiment: activity of MST2(h) at 1.0 µM in the Eurofins Kinase panel
[14] = target: Phosphatidylinositol 5-phosphate 4-kinase type-2 alpha (Homo sapiens) (UniProt P48426); experiment: activity of PIP4K2alpha(h) at 1.0 µM in the Eurofins Kinase panel
[15] = target: cAMP-dependent protein kinase catalytic subunit beta (Homo sapiens) (UniProt P22694); experiment: activity of PKACbeta(h) at 1.0 µM in the Eurofins Kinase panel
[16] = target: Mitogen-activated protein kinase 13 (Homo sapiens) (UniProt O15264); experiment: activity of SAPK4(h) at 1.0 µM in the Eurofins Kinase panel
[17] = target: Serine/threonine-protein kinase 32A (Homo sapiens) (UniProt Q8WU08); experiment: activity of STK32A(h) at 1.0 µM in the Eurofins Kinase panel
[18] = target: Serine/threonine-protein kinase 32C (Homo sapiens) (UniProt Q86UX6); experiment: activity of STK32C(h) at 1.0 µM in the Eurofins Kinase panel
Sequence of Serine/threonine-protein kinase 32C (Homo sapiens) (Q86UX6 whole entry): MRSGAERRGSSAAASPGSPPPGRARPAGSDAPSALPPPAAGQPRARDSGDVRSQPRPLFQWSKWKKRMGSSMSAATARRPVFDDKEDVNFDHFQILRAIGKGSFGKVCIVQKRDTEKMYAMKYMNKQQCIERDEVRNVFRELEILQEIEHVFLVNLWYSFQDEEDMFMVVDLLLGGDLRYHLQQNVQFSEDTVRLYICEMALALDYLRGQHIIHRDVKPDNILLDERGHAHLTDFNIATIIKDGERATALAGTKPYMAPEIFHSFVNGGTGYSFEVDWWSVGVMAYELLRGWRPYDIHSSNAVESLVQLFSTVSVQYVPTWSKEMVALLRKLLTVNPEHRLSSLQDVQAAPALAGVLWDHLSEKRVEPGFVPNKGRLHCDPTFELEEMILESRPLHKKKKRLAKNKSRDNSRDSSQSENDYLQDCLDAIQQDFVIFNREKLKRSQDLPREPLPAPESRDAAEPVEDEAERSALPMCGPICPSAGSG

[19] = target: Mitogen-activated protein kinase kinase kinase 7 (Homo sapiens) (UniProt O43318); experiment: activity of TAK1(h) at 1.0 µM in the Eurofins Kinase panel
[20] = target: Serine/threonine-protein kinase tousled-like 1 (Homo sapiens) (UniProt Q9UKI8); experiment: activity of TLK1(h) at 1.0 µM in the Eurofins Kinase panel
Sequence of Serine/threonine-protein kinase tousled-like 1 (Homo sapiens) (Q9UKI8 whole entry): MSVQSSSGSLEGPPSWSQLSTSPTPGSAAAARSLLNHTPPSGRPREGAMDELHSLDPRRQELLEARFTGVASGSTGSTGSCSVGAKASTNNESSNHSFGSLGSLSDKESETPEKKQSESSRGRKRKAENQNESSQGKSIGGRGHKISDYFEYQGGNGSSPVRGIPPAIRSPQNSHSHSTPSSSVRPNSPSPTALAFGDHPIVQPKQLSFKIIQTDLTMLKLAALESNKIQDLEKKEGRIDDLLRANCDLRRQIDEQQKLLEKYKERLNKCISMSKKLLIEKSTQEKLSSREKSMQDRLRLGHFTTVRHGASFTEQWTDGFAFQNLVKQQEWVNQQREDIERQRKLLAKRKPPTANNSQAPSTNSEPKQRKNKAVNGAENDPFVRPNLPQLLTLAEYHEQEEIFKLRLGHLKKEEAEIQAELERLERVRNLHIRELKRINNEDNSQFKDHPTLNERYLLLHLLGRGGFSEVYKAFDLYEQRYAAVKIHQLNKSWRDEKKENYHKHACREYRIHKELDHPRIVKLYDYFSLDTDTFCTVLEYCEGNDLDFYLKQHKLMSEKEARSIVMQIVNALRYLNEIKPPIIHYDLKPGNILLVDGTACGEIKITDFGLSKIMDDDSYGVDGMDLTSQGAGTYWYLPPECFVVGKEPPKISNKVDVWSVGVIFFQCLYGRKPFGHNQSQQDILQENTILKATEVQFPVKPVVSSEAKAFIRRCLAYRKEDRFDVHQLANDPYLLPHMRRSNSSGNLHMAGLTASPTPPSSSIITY

[21] = target: Serine/threonine-protein kinase ULK2 (Homo sapiens) (UniProt Q8IYT8); experiment: activity of ULK2(h) at 1.0 µM in the Eurofins Kinase panel
[22] = target: Wee1-like protein kinase (Homo sapiens) (UniProt P30291); experiment: activity of Wee1(h) at 1.0 µM in the Eurofins Kinase panel
[23] = target: Serine/threonine-protein kinase WNK2 (Homo sapiens) (UniProt Q9Y3S1); experiment: activity of WNK2(h) at 1.0 µM in the Eurofins Kinase panel
Sequence of Serine/threonine-protein kinase WNK2 (Homo sapiens) (Q9Y3S1 whole entry): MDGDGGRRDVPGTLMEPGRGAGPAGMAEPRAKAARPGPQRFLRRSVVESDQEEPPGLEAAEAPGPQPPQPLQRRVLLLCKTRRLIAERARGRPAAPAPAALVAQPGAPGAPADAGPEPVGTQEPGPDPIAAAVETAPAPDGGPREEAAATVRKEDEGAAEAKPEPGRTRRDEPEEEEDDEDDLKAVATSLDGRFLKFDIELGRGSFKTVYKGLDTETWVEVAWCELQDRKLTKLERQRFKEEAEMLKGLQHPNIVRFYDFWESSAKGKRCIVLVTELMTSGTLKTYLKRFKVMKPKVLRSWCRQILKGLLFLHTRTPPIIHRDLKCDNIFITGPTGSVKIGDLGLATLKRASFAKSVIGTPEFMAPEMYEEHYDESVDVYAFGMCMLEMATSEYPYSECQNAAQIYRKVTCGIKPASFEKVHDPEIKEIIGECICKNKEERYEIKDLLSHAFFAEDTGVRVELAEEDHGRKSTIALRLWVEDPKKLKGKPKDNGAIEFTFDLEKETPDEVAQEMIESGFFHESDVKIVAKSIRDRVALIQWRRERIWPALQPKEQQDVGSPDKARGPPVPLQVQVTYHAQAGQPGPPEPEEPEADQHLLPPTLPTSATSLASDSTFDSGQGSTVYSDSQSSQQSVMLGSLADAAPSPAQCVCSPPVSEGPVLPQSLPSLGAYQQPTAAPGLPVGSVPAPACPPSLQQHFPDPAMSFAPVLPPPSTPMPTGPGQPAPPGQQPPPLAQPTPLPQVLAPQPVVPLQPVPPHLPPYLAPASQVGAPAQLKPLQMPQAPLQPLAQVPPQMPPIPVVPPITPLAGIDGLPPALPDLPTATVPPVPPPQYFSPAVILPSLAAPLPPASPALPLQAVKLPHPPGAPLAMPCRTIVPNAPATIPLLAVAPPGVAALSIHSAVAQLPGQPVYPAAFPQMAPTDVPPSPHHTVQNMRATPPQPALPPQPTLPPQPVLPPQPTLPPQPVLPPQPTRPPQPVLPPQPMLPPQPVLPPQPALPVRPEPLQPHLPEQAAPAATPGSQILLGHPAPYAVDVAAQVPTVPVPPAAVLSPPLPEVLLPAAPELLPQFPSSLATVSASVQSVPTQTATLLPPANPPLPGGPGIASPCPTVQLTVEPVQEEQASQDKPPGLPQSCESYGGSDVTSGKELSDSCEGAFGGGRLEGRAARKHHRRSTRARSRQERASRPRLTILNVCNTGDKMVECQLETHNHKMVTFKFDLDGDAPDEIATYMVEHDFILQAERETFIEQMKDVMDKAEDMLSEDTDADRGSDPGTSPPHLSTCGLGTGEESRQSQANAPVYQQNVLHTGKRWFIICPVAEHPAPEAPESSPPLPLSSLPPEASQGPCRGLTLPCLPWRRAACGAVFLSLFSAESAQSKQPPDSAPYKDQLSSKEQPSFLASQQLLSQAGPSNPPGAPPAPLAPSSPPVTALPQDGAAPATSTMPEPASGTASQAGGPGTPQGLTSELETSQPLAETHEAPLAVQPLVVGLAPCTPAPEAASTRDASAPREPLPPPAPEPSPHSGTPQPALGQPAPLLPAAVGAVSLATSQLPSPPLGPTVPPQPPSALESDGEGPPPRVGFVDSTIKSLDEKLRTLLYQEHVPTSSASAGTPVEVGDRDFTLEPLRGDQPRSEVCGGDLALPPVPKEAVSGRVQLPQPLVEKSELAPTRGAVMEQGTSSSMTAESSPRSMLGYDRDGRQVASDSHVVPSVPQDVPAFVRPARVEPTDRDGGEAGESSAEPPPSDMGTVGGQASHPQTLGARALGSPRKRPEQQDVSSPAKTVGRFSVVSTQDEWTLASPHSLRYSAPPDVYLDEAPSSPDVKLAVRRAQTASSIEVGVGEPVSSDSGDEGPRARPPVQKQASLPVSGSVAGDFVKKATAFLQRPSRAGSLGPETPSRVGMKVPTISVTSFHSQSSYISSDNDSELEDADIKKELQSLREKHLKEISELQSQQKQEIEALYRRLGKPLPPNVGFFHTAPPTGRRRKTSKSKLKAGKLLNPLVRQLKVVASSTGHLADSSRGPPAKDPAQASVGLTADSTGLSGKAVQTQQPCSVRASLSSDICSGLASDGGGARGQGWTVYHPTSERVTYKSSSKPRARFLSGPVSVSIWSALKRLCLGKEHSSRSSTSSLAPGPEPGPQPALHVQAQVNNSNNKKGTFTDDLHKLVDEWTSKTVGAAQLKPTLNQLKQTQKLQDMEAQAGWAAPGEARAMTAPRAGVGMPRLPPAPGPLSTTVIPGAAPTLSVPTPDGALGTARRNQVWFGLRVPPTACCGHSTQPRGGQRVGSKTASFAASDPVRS

[24] = target: Mitogen-activated protein kinase kinase kinase 20 (Homo sapiens) (UniProt Q9NYL2); experiment: activity of ZAK(h) at 1.0 µM in the Eurofins Kinase panel

Sequence of Activin receptor type-1B (Homo sapiens) (P36896 whole entry): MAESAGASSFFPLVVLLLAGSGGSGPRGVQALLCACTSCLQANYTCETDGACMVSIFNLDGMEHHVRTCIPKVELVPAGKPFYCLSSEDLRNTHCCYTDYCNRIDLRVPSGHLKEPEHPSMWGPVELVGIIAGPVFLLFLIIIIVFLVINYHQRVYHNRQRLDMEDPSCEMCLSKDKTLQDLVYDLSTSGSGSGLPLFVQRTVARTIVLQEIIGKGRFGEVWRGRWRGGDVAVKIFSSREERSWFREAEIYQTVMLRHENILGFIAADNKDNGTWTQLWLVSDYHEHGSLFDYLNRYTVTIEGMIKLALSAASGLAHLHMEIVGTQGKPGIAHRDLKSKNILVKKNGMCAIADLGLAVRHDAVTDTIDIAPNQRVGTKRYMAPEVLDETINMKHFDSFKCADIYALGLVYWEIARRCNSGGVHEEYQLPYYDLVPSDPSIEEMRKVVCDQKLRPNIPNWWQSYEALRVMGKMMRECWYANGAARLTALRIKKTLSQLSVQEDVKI

- activity [1]: 94%
- activity [2]: 97%
- activity [3]: 89%
- activity [4]: 92%
- activity [5]: 107%
- activity [6]: 93%
- activity [7]: 80%
- activity [8]: 99%
- activity [9]: 107%
- activity [10]: 109%
- activity [11]: 98%
- activity [12]: 91%
- activity [13]: 106%
- activity [14]: 100%
- activity [15]: 121%
- activity [16]: 94%
- activity [17]: 90%
- activity [18]: 85%
- activity [19]: 91%
- activity [20]: 82%
- activity [21]: 98%
- activity [22]: 94%
- activity [23]: 94%
- activity [24]: 83%
SMILES: Cc1cc2c(-c3ccc(NC(=O)[C@H](N)CC(C)(C)C)cc3C)ccnc2[nH]1
